Where a name gives a salt, the structure may show the parent alone.
Experiments:
[1] = Solubility of pitavastatin salts in buffers of pH 1.2 and pH 4.8; type: physicochemical; conditions: for Appearance: appearance of the mixture at the reported pH and amount of salt added
Text: The pharmaceutically acceptable pitavastatin salts obtained above were subjected to solubility measurements. […] Amounts of added salt were increased as long as the resulting solution remained clear and the resulting pH value, as well as the total amount of salt added, are reported in the below Table.
The following observations were made. The solubility of pitavastatin calcium salt is very low, initially the compound floated on the buffer. In contrast, the solubility of the amine salts was much higher; in many cases solutions were still clear after more than 160 mg·g^−1 solution was added. For the amine salts, pH values increased to values as reported in the Table upon increasing addition of salt (indicating exhaustion of buffer capacity due to high salt solubility). […] Qualitatively, the speed of dissolution of the amine salts was much faster than the speed of dissolution of the calcium salt. The pitavastatin amine salts were not hygroscopic (qualitative determination).

[2] = Basic toxicological evaluation

O=C(O)C[C@H](O)C[C@H](O)/C=C/c1c(C2CC2)nc2ccccc2c1-c1ccc(F)cc1 [Calcium salt, pitavastatin-Ca, reference compound]
Appearance [1]: Suspension
Solubility (observation in words) ([1]; aqueous buffers): very low

O=C(O)C[C@H](O)C[C@H](O)/C=C/c1c(C2CC2)nc2ccccc2c1-c1ccc(F)cc1 [Tris(hydroxymethyl)-aminomethane salt, pitavastatin-tris(hydroxymethyl)aminomethane salt]
Appearance [1]: Clear

NCc1ccco1 [1-furfurylamine]
Toxicological classification [2]: very safe

O=C(O)C[C@H](O)C[C@H](O)/C=C/c1c(C2CC2)nc2ccccc2c1-c1ccc(F)cc1 [L-Lysine salt, pitavastatin-lysine salt]
Solubility (observation in words) ([1]; starting with a buffer of pH 4.8 (entry at pH 4.5)): very low

NCc1ccco1.O=C(O)C[C@H](O)C[C@H](O)/C=C/c1c(C2CC2)nc2ccccc2c1-c1ccc(F)cc1 [Furfurylamine salt, pitavastatin-furfuryl amine salt]
Appearance [1]: Suspension

O=C(O)C[C@H](O)C[C@H](O)/C=C/c1c(C2CC2)nc2ccccc2c1-c1ccc(F)cc1 [Choline salt, pitavastatin-choline salt]
Appearance [1]: Clear

— patent US20160052887A1, “PHARMACEUTICALLY ACCEPTABLE AMINE SALTS OF PITAVASTATIN” (DSM SINOCHEM PHARMACEUTICALS NETHERLANDS B.V., priority 2013, published 2016)
